# Key:
# [1] = target: T1, GST-tagged human Aurora B(AurB)/His-tagged human INCENP complex proteins (Homo sapiens, UniProt Q96GD4); assay: Aurora B inhibitory activity (Method A, IMAP kit); assay type: biochemical; conditions: 40 μM ATP, 25° C., 45 minutes
# T1 construct: GST; purchased Cama Biosciences, Inc. (so in the source)
# Method: Using the same, the phosphorylation reaction was conducted in accordance with a partially revised protocol attached to the kit, and then the phosphorylation of the substrate was detected using the IMAP technology.
# For the phosphorylation reaction, 384 well plate was used, and the reaction volume was 10 μl/well. The composition of the reaction buffer (assay buffer) is comprised of 20 mM of HEPES buffer (pH 7.4), 0.01% Tween-20, and 2 mM of dithiothreitol (DTT). Thereto, AurB/INCENP complex protein, 100 nM of the substrate, and 40 μM of ATP, and 1 mM of magnesium salt were added, and then the reaction was conducted at 25° C. for 45 minutes. Thereafter, in order to terminate and detect the reaction, 30 μl of the IMAP (registered trademark) binding reagent (IMAP Progressive Binding Reagent, R7284) that had been diluted (1:400) in the 1× IMAP binding buffer A (IMAP Progressive Binding Buffer A, 5× stock, R7282) was added to each well.
# The compound to be tested was added to the reaction system such that a dilution series of the compound in DMSO was prepared, and then 0.5 μL of this solution was added for the testing to each well. Each control well was provided by adding 0.5 μL of DMSO to the well in place of the DMSO solution containing the compound to be tested.
# [2] = target: T2, His-tagged human Aurora A (Homo sapiens, UniProt O14965); assay: Aurora A inhibitory activity (IMAP fluorescence polarization); assay type: biochemical; conditions: 20 μM ATP, 30° C., 120 minutes
# T2 construct: made in house; host or cells: Escherichia coli BL21-CodonPlus(DE3)-RIL
# T2 sequence (O14965 1-403): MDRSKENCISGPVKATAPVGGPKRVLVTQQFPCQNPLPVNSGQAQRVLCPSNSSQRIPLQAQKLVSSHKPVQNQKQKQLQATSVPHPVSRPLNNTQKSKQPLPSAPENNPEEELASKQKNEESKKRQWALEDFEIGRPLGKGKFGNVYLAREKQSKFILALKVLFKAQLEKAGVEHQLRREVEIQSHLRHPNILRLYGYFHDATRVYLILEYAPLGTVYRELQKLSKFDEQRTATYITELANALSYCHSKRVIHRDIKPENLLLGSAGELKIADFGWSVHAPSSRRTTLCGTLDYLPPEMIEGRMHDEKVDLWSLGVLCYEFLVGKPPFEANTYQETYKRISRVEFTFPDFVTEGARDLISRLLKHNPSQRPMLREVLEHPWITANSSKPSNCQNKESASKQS
# Text: cDNA of N-terminal His-tagged human Aurora A was integrated into an expression vector, which was then highly expressed in Escherichia coli BL21-CodonPlus(DE3)-RIL cells. The Escherichia coli was harvested and lysed, and then the His-tagged human Aurora A protein was applied onto a nickel chelate column and eluted from the column with imidazole. The active fractions were desalted with a desalting column to give a purified enzyme.
# Concretely, the phosphorylation reaction and the detection were carried out as follows:
# The phosphorylation reaction was conducted using 384 well plate, and the reaction volume was 10 μl/well. The reaction buffer is comprised of 50 mM Tris-chloride buffer (pH 7.4), 15 mM magnesium acetate, and 0.2 mM ethylenediamine-N,N,N′,N′-tetraacetic acid (EDTA). […]
# Thereafter, in order to terminate and detect the reaction, 30 μl of the IMAP (registered trademark) binding reagent (IMAP Progressive Binding Reagent, R7284) that had been diluted (1:400) in the 1× IMAP binding buffer A (IMAP Progressive Binding Buffer A, 5× stock, R7282) was added to each well. The solution stood still for 60 minutes in the dark, and then fluorescence polarization was measured using a high-end microplate reader (excitation wavelength: 485 nm; emission wavelength: 520 nm). […]
# [3] = test system: Human cervical cancer cells (HeLa S3); assay: Effect by combined use of drugs in cells (docetaxel), WST-8 method; assay type: cell-based
# Method: Fetal calf serum (FCS) was purchased from Moregate Biotech, DMEM medium from Invitrogen Corp., docetaxel (tradename: Taxere) from Sigma-Aldrich, Inc., and WST-8 from Kishida Chemical Co., Ltd.
# (§1) Human cervical cancer cells (HeLa S3) were obtained from the American Type Culture Collection (ATCC).
# Cells were suspended in a DMEM medium containing 10% FCS, and the cell suspension was dispensed to two 96-well plastic plates at a rate of 750 cells/100 microliters per well. The plates were incubated overnight in 5% CO2-95% air at 37° C. A drug was subjected to graded dilution in dimethylsulfoxide and further diluted with DMSO or with a DMEM medium containing 10% FCS and also containing 0.6 nM docetaxel. Then, the dilutions were each dispensed to one of the plates on which cells had been disseminated, at a rate of 100 microliters per well. The final concentration of docetaxel at this stage was 0.3 nM. Also, the concentrations in the case of sole administration of the compound according to the invention were 0.003, 0.01, 0.03, 0.1, 0.3, 1, 3 and 10 μM. The plates were incubated for further three days in 5% CO2-95% air at 37° C. Cell growth after incubation was measured by the WST-8 method (H. Tominaga, et al., Anal. Commun., 36, 47-50 (1999)). Here, the WST-8 method refers to a method in which 20 microliters of a WST-8 reagent solution is added to each well, incubation is conducted at 37° C. for 60 minutes, the plate is stirred, and the amount of formazan produced is measured by a colorimetric method to determine the inhibitory rate of the drug. The growth inhibitory effects of docetaxel and of the compound according to the invention were determined, with the value obtained in sole treatment of DMSO being defined as 0%.
# [4] = test system: Human cervical cancer cells (HeLa S3); assay: Cell growth inhibitory effect, WST-8 method; assay type: cell-based; conditions: 72 h, HeLa S3, three days incubation, read-out: Cell growth inhibitory effect (HeLaS3) (IC50)
# Method: Fetal calf serum (FCS) was purchased from Moregate Biotech, and DMEM medium was purchased from Invitrogen Corp. WST-8 was purchased from Kishida Chemical Co., Ltd.
# as §1
# Cells were suspended in a DMEM medium containing 10% FCS, and the cell suspension was dispensed to a 96-well plastic plate at a rate of 750 cells/100 microliters per well. The plate was incubated overnight in 5% CO2-95% air at 37° C. A drug was subjected to graded dilution in dimethylsulfoxide and further diluted with a DMEM medium containing 10% FCS. Then, the dilution was dispensed to the plate on which cells had been disseminated, at a rate of 100 microliters per well.
# T1 sequence (Q96GD4 whole entry): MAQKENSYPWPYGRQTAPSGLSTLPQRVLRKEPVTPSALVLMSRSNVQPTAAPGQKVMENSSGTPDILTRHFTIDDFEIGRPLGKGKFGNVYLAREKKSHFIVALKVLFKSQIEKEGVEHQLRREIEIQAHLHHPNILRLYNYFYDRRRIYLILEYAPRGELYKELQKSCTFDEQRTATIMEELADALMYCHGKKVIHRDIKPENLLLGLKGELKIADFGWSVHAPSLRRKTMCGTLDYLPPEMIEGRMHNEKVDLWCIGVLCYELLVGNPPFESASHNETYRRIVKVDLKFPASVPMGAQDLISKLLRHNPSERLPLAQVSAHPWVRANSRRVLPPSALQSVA
# T1 sequence (Q9NQS7 803-916 partner limits assumed): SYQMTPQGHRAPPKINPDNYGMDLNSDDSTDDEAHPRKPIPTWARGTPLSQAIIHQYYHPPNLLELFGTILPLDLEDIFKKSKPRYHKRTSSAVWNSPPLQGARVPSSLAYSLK
IC50 [1] [µM],IC50 [2] [µM],IC50 [4] [µM],Compound,"inhibition at 0.1 µM ([3]; Homo sapiens, HeLa S3, compound 0.1 μM alone, read-out: Cell growth inhibitory effect by sole administration of the compound of Example (%)) [%]","inhibition at 0.3 µM ([3]; Homo sapiens, HeLa S3, compound 0.3 μM alone, read-out: Cell growth inhibitory effect by sole administration of the compound of Example (%)) [%]",Cell growth inhibitory effect by combined administration of docetaxel and the compound of Example (%) ([3]; compound 0.1 μM + docetaxel 0.3 nM),Cell growth inhibitory effect by combined administration of docetaxel and the compound of Example (%) ([3]; compound 0.3 μM + docetaxel 0.3 nM)
0.22,0.0024,–,"Fc1c(O[C@H]2CC[C@](Cc3cccc(Nc4cc[nH]n4)n3)(c3nncs3)CC2)cccc1C(F)(F)F [Example 27, 6-((trans-4-(2-fluoro-3-(trifluoromethyl)phenoxy)-1-(1,3,4-thiadiazol-2-yl)cyclohexyl)methyl)-N-1H-pyrazol-3-ylpyridin-2-amine]",–,–,–,–
0.67,0.00019,0.67,"O=c1[nH]nc([C@]2(Cc3cncc(Nc4cc[nH]n4)n3)CC[C@@H](Oc3cccc(Cl)c3F)CC2)o1 [Example 29, 5-(trans-4-(3-chloro-2-fluorophenoxy)-1-((6-(1H-pyrazol-3-ylamino)pyrazin-2-yl)methyl)cyclohexyl)-1,3,4-oxadiazol-2(3H)-one]",11.3,39.9,79.0,92.9

# Source: patent US7915263B2, “Aminopyridine derivatives having aurora A selective inhibitory action” (Banyu Pharmaceutical Co., Ltd., priority 2006, dated 2011)
